Source: US20240409559A1, “CRYSTALLINE FORM OF AZALACTAM COMPOUND” (PFIZER INC., priority 2021, published 2024)

Experiments:
[1] = Thermal analysis: dehydration by TGA; type: physicochemical
[2] = Moisture sorption/desorption by dynamic vapor sorption (DVS), with post-DVS PXRD; type: physicochemical
Source text: This example provides characterization data on PF-07265028 Form 1 from a sample obtained using a procedure disclosed in International Patent Publication No. WO2021/220185, using powder x-ray diffraction and dynamic vapor sorption to support the preparation of a disclosure. Form 1 is a crystalline hygroscopic tetrahydrate with multiple powder patterns depending on temperature and humidity. […] The dehydration risk can pose challenges to API isolation, storage and drug product manufacture. Maintaining the proper water content is considered to be difficult for Form 1.

| Compound | Dehydration (TGA)-Hydrated/Solvated, weight loss [1] [% weight loss] | Hygroscopicity (in words) [2] | Moisture Sorption/Desorption-Hydrate (DVS): Change in mass-ref (%) ([2]; 75% RH) | Moisture Sorption/Desorption-Hydrate (DVS): Change in mass-ref (%) ([2]; 90% RH) | Crystallinity after dehydration ([2]; after dehydration, PXRD after the water sorption experiment) | Post-DVS PXRD result ([2]; after water sorption experiment) | Moisture Sorption/Desorption-Hydrate (DVS): dehydration state ([2]; at 3% RH) | Moisture Sorption/Desorption-Hydrate (DVS): Change in mass-ref (%) ([2]; at 60% RH) | Moisture Sorption/Desorption-Hydrate (DVS): rehydrate at or below 10% RH ([2]; at or below 10% RH) | Rehydration at high humidity conditions ([2]; high humidity conditions, after dehydration) | Post-DVS PXRD compared with in-going material ([2]; after DVS experiment) | Hygroscopicity: Moisture Sorption (DVS)-Anhydrous ([2]; at 60% RH) [% at 60% RH] | Hygroscopicity: Moisture Sorption (DVS)-Anhydrous ([2]; at 75% RH) [% at 75% RH] | Hygroscopicity: Moisture Sorption (DVS)-Anhydrous ([2]; at 90% RH) [% at 90% RH] |
| --- | --- | --- | --- | --- | --- | --- | --- | --- | --- | --- | --- | --- | --- | --- |
| CC[C@@H](N)c1nc(N2CCC[C@H]2C)cc2c1CN(c1cccc(-c3nnc4n3[C@@H](C)CC4)n1)C2=O [Form 1, 4-[(1R)-1-aminopropyl]-2-{6-[(5S)-5-methyl-6,7-dihydro-5H-pyrrolo[2,1-c][1,2,4]triazol-3-yl]pyridin-2-yl}-6-[(2R)-2-methylpyrrolidin-1-yl]-2,3-dihydro-1H-pyrrolo[3,4-c]pyridin-1-one] | ~14 | hygroscopic | ~−2.4 | ~−0.1 | can lose crystallinity | peak shifting and disorder observed | Completely dehydrated | Change in mass-ref (%) at 60% RH: ~−6.2%; | did not | does not rehydrate | – | – | – | – |
| CC[C@@H](N)c1nc(N2CCC[C@H]2C)cc2c1CN(c1cccc(-c3nnc4n3[C@@H](C)CC4)n1)C2=O [Form 2, 4-[(1R)-1-aminopropyl]-2-{6-[(5S)-5-methyl-6,7-dihydro-5H-pyrrolo[2,1-c][1,2,4]triazol-3-yl]pyridin-2-yl}-6-[(2R)-2-methylpyrrolidin-1-yl]-2,3-dihydro-1H-pyrrolo[3,4-c]pyridin-1-one] | – | non-hygroscopic | – | – | – | – | – | – | – | – | Post-DVS PXRD is consistent with in- | ~0.2 | ~0.2 | ~0.2 |
